Experimental findings from patent US20160355530A1, “HEPATITIS C INHIBITORS AND USES THEREOF” (AbbVie Inc., priority 2010, published 2016) are described below.

Test [1] concerns HCV NS5B polymerase 1a-H77-C316Y. As to the kind of experiment: biochemical. Also noted: species or system HCV genotype 1a. Conditions: ratio of enzyme IC50s, 1a H77-C316Y / 1a H77. In short, it runs like this: (§1)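 Incorporation of [3H]UTP (0.284 μM), alongside 20 μM each CTP and ATP, into RNA copied from a 5 nM 2.1 kb genotype 1b negative-strand template was measured after 3 h at 30° C using purified His-tagged NS5B truncated at residue 570. Product was spermine-precipitated, filtered and scintillation-counted; nonlinear regression gave IC50.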

For test [2], the target named is T1, HCV NS5B polymerase 1a-H77-C316Y (Hepatitis C virus genotype 1a, UniProt P27958, C2736Y).
T1 construct: six-histidine tag; made in house; host or cells: E. coli
T1 sequence (P27958 2421-2990 C2736Y): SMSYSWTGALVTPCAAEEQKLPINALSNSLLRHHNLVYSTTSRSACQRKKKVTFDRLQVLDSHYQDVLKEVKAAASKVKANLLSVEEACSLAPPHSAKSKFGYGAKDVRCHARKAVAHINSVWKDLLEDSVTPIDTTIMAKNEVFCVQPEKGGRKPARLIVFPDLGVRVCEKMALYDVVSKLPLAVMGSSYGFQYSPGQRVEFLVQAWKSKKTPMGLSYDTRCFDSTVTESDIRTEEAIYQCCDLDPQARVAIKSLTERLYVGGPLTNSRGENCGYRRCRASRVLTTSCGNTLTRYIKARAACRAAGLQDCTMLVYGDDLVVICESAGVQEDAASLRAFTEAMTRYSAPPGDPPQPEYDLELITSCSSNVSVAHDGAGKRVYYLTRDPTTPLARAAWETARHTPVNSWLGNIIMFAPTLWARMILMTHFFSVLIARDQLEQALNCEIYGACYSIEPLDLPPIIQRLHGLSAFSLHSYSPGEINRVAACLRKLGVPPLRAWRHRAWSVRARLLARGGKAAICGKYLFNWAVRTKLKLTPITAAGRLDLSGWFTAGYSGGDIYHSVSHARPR
The experiment in a line: biochemical. Further details: species or system HCV genotype 1a. In short, it runs like this:
as §1

For test [3], the target named is T2, HCV NS5B polymerase 1a-H77 (Hepatitis C virus genotype 1a, UniProt P27958).
T2 construct: six-histidine tag; made in house; host or cells: E. coli
T2 sequence (P27958 2421-2990): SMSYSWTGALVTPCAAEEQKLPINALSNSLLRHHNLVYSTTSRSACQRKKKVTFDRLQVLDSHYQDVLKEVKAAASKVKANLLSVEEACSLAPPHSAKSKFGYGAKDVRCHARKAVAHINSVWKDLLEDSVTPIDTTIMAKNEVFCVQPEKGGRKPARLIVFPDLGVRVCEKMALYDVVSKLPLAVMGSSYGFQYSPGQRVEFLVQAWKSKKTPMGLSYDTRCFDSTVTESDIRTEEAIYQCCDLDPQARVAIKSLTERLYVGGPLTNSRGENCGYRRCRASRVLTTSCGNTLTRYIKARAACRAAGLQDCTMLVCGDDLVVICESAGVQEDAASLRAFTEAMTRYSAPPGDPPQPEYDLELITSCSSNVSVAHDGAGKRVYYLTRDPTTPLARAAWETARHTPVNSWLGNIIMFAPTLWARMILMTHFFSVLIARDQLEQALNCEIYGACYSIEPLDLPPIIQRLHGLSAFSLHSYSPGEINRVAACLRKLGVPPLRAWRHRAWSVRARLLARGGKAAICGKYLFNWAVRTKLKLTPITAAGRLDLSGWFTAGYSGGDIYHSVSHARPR
The experiment in a line: biochemical. The note with it: enzyme, strain 1a H77; read-out: HCV Polymerase Strain 1a H77 IC50. Further details: species or system HCV genotype 1a. In short, it runs like this:
as §1

Test [4] relates to chimeric replicon with 2a-J6CF-derived NS5B. As to the kind of experiment: microbe, parasite or virus in culture. In kind it is cell-based, HCV genotype 2a. Conditions: Hepatitis C virus, read-out: 2a chimera 5% FBS EC50.
The target of test [5] is T3, HCV NS5B polymerase 1b BK strain (Hepatitis C virus genotype 1b, UniProt P26663).
T3 construct: six-histidine tag; made in house; host or cells: E. coli
T3 sequence (P26663 2420-2989): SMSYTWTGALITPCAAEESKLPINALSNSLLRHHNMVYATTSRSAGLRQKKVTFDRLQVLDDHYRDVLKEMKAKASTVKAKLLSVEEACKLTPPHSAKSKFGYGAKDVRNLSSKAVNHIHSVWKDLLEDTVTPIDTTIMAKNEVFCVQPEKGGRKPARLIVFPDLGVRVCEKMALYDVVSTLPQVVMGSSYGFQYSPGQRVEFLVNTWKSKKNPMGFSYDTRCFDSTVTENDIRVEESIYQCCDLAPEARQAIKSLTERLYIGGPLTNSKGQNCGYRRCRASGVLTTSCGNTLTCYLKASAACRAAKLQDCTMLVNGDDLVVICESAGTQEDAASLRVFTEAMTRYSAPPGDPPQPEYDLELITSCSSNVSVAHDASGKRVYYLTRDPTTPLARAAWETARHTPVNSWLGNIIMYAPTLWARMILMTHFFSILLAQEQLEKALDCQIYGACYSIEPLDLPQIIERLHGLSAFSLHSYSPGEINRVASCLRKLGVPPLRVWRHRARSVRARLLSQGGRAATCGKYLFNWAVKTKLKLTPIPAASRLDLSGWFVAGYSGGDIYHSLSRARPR
The experiment in a line: HCV NS5B polymerase enzymatic inhibition assay, strain 1b BK. The format is biochemical. The note with it: enzyme, strain 1b BK; read-out: HCV Polymerase Strain 1b BK IC50. In short, it runs like this:
as §1

For test [6], the system named is chimeric replicon with genotype 4a NS5B. The experiment in a line: microbe, parasite or virus in culture. In kind it is cell-based, HCV genotype 4a. The note with it: Hepatitis C virus, read-out: 4a chimera 5% FBS EC50.
In test [7] the test system is chimeric replicon with genotype 3a NS5B. The experiment in a line: microbe, parasite or virus in culture. In kind it is cell-based, HCV genotype 3a. The note with it: Hepatitis C virus, read-out: 3a chimera 5% FBS EC50.
Test [8] has as its system HCV 1b-BB7 subgenomic replicon. As to the kind of experiment: microbe, parasite or virus in culture. In kind it is cell-based, HCV genotype 1b. Conditions: Hepatitis C virus, stable replicon.
Test [9] relates to chimeric replicon with genotype 2b NS5B. As to the kind of experiment: microbe, parasite or virus in culture. The format is cell-based, HCV genotype 2b. Conditions: Hepatitis C virus, read-out: 2b chimera 5% FBS EC50.
In test [10] the test system is HCV 1a-H77 subgenomic replicon. As to the kind of experiment: microbe, parasite or virus in culture. Conditions: Hepatitis C virus, stable replicon. In kind it is cell-based, HCV genotype 1a. For orientation: Replicon systems follow genome replication, usually without infectious particles.
The mark [11] stands for this setting: strain 1b BB7, 5% FBS + 40% human plasma, read-out: 1b BB7 5% FBS + 40% Human Plasma EC50.
Where [12] appears, read: strain 1b BB7, 5% FBS, no human plasma, read-out: 1b BB7 5% FBS EC50.
Where [13] appears, read: strain 1b BB7, 5% FBS, read-out: 1b BB7 5% FBS EC50.
Setting [14] is: 5% FBS, absence of human plasma, read-out: Stable Replicon 1a H77 5% FBS EC50.
Setting [15] is: strain 1a H77, 5% FBS + 40% human plasma, read-out: 1a H77 5% FBS + 40% Human Plasma EC50.
The mark [16] stands for this setting: strain 1a H77, 5% FBS, no human plasma, read-out: 1a H77 5% FBS EC50.
The mark [17] stands for this setting: strain 1a H77, 5% FBS, read-out: 1a H77 5% FBS EC50.

Like-named read-outs stand apart in the source and are kept apart here.

For orientation: IC50 means the concentration needed to halve the response being measured. The term EC50 denotes the concentration needed to bring the measured effect to its halfway point.

On to `CCCCCN(c1cc2oc(-c3ccc(F)cc3)c(-c3ncc[nH]3)c2cc1C1CC1)S(C)(=O)=O` [Example 70, N-[5-cyclopropyl-2-(4-fluorophenyl)-3-(1H-imidazol-2-yl)-1-benzofuran-6-yl]-N-pentylmethanesulfonamide], for which the “C316Y/1a Fold Resistance” value in test [1] is 8 fold. Further, the half-maximal inhibitory concentration (IC50) in test [2] came out at 69 nM; in test [3], 8.5 nM; in [5], 24 nM. Further, the EC50 in test [4] was found to be 173 nM; in test [6], 285 nM; in test [7] it was 26.8 nM; in test [8] (setting [11]), 298 nM; in test [8] (setting [12]) it was 35.6 nM; in test [8] (setting [13]), 35.6 nM. Further, the EC50 in test [9] turned out to be 234 nM; in [10] (setting [14]), 41.8 nM; in test [10] (setting [15]), 641 nM; in [10] (setting [16]), 41.8 nM; in test [10] (setting [17]), 41.8 nM.
Turning to `CN(C)CCCN(c1cc2oc(-c3ccc(F)cc3)c(-c3ncc[nH]3)c2cc1C1CC1)S(C)(=O)=O` [Example 59, N-[5-cyclopropyl-2-(4-fluorophenyl)-3-(1H-imidazol-2-yl)-1-benzofuran-6-yl]-N-[3-(dimethylamino)propyl]methanesulfonamide], the “C316Y/1a Fold Resistance” value in test [1] came out at 112 fold. The results for the IC50 in test [2], in [3] and in test [5] were 1500 nM, 13.4 nM and 56 nM, respectively. Besides, the EC50 in test [4] is 65 nM; in test [6] it was 424 nM; in [7], 10.3 nM; in test [8] (setting [11]), 20 nM; in [8] (setting [12]), 11.2 nM; in [8] (setting [13]) it was 11.2 nM. Moreover, the EC50 in [9] was determined as 127 nM; in test [10] (setting [14]), 85.1 nM; in test [10] (setting [15]), 159 nM; in test [10] (setting [16]) it was 85.1 nM; in test [10] (setting [17]), 85.1 nM.
Turning to `Cn1cnc2ccc(-c3ncc(CN(c4ccc5c(-c6ncc[nH]6)c(-c6ccccc6)oc5c4)S(C)(=O)=O)s3)cc21` [Example 30, N-[3-(1H-imidazol-2-yl)-2-phenyl-1-benzofuran-6-yl]-N-{[2-(1-methyl-1H-benzimidazol-6-yl)-1,3-thiazol-5-yl]methyl}methanesulfonamide], in test [1], the “C316Y/1a Fold Resistance” value was determined as 4 fold. Besides, the IC50 was found to be 19 nM in [2], 5 nM in test [3] and 12 nM in test [5]. The EC50 in test [4] came out at 40.7 nM; in test [6], 150 nM; in [7], 2.8 nM; in test [8] (setting [11]) it was 1320 nM; in [8] (setting [12]) it was 4 nM; in test [8] (setting [13]), 4 nM. The EC50 in test [9] was determined as 109 nM; in [10] (setting [14]), 108 nM; in test [10] (setting [15]), 10000 nM; in [10] (setting [16]), 108 nM; in test [10] (setting [17]) it was 108 nM.
Turning to `CS(=O)(=O)CCCN(c1cc2oc(-c3ccc(F)cc3)c(C3=NOCCN3)c2cc1C1CC1)S(C)(=O)=O` [Example 140, N-[5-cyclopropyl-3-(5,6-dihydro-4H-1,2,4-oxadiazin-3-yl)-2-(4-fluorophenyl)-1-benzofuran-6-yl]-N-[3-(methylsulfonyl)propyl]methanesulfonamide], the “C316Y/1a Fold Resistance” value in test [1] was 8 fold. Besides, the half-inhibitory concentration (IC50) in test [2] came to 38 nM; in test [3], 5 nM; in test [5] it was 42 nM. For the same compound, the EC50 in [4] was 274 nM; in test [6], 189 nM; in [7], 44 nM; in test [8] (setting [11]), 150 nM; in [8] (setting [12]) it was 11 nM; in [8] (setting [13]), 11 nM. Moreover, the EC50 in test [9] came out at 211 nM; in test [10] (setting [14]) it was 14.5 nM; in test [10] (setting [15]) it was 122 nM; in [10] (setting [16]), 14.5 nM; in test [10] (setting [17]), 14.5 nM.
For `CS(=O)(=O)N(CCCc1noc(=O)[nH]1)c1cc2oc(-c3ccc(F)cc3)c(C3=NOCCN3)c2cc1C1CC1` [Example 182, N-[5-cyclopropyl-3-(5,6-dihydro-4H-1,2,4-oxadiazin-3-yl)-2-(4-fluorophenyl)-1-benzofuran-6-yl]-N-[3-(5-oxo-4,5-dihydro-1,2,4-oxadiazol-3-yl)propyl]methanesulfonamide], the “C316Y/1a Fold Resistance” value in test [1] is given as 4 fold. In addition, the IC50 came out at 26 nM in test [2], 7 nM in [3] and 44 nM in test [5]. For the same compound, the EC50 in [4] was 1000 nM; in [6], over 1000 nM; in test [7], 661 nM; in [8] (setting [11]) it was 5250 nM; in test [8] (setting [12]), 310 nM; in test [8] (setting [13]), 310 nM. Moreover, the half-maximal effective concentration (EC50) came out at 1000 nM in [9]; 356 nM in test [10] (setting [14]); 4230 nM in test [10] (setting [15]); 356 nM in test [10] (setting [16]); 356 nM in [10] (setting [17]).
Turning to `CCS(=O)(=O)CCCN(c1cc2oc(-c3ccc(F)cc3)c(C3=NOCCN3)c2cc1C1CC1)S(C)(=O)=O` [Example 143, N-[5-cyclopropyl-3-(5,6-dihydro-4H-1,2,4-oxadiazin-3-yl)-2-(4-fluorophenyl)-1-benzofuran-6-yl]-N-[3-(ethylsulfonyl)propyl]methanesulfonamide], the “C316Y/1a Fold Resistance” value in [1] is on record as 8 fold. The IC50 was determined as 75 nM in test [2], 9 nM in test [3] and 42 nM in test [5]. For the same compound, the 50% effective concentration (EC50) is 131 nM in test [4]; 150 nM in [6]; 35 nM in test [7]; 108 nM in test [8] (setting [11]); 12 nM in test [8] (setting [12]); 12 nM in test [8] (setting [13]). The EC50 in test [9] came out at 137 nM; in [10] (setting [14]), 21.8 nM; in test [10] (setting [15]), 125 nM; in test [10] (setting [16]), 21.8 nM; in test [10] (setting [17]), 21.8 nM.
On to `CS(=O)(=O)N(CCCC(F)(F)F)c1cc2oc(-c3ccc(F)cc3)c(C3=NOCCN3)c2cc1C1CC1` [Example 117, N-[5-cyclopropyl-3-(5,6-dihydro-4H-1,2,4-oxadiazin-3-yl)-2-(4-fluorophenyl)-1-benzofuran-6-yl]-N-(4,4,4-trifluorobutyl)methanesulfonamide], for which the “C316Y/1a Fold Resistance” value in [1] was found to be 8 fold. In addition, the IC50 is 36 nM in [2], 4.5 nM in [3] and 31 nM in test [5]. The EC50 was 214 nM in test [4]; 233 nM in test [6]; 31 nM in [7]; 245 nM in test [8] (setting [11]); 30 nM in test [8] (setting [12]); 30 nM in test [8] (setting [13]). For the same compound, the EC50 in test [9] came out at 240 nM; in test [10] (setting [14]), 22 nM; in test [10] (setting [15]) it was 159 nM; in [10] (setting [16]), 22 nM; in [10] (setting [17]) it was 22 nM.
Regarding `COCCCN(c1cc2oc(-c3ccc(F)cc3)c(-c3ncc[nH]3)c2cc1C1CC1)S(C)(=O)=O` [Example 69, N-[5-cyclopropyl-2-(4-fluorophenyl)-3-(1H-imidazol-2-yl)-1-benzofuran-6-yl]-N-(3-methoxypropyl)methanesulfonamide], the “C316Y/1a Fold Resistance” value in test [1] is recorded as 32 fold. Besides, the values for the IC50 in test [2], in test [3] and in [5] were 205 nM, 6.5 nM and 29 nM, respectively. Also, the EC50 in [4] is 61.1 nM; in test [6], 82.8 nM; in test [7], 9.4 nM; in [8] (setting [11]) it was 59 nM; in test [8] (setting [12]) it was 6.6 nM; in test [8] (setting [13]) it was 6.6 nM. For the same compound, the EC50 in test [9] was determined as 67.2 nM; in [10] (setting [14]) it was 13.9 nM; in test [10] (setting [15]), 259 nM; in test [10] (setting [16]), 13.9 nM; in [10] (setting [17]), 13.9 nM.
